≈ marks a conversion by molar mass, not a printed value.
Tests used:
[1] = system: A549; test: Antiproliferative activity against human A549 cells assessed as reduction in cell viability; assay type: functional, cell-based
[2] = Cytotoxicity against human L02 cells assessed as reduction in cell viability; assay type: toxicity, cell-based
[3] = Selectivity index, ratio of IC50 for cytotoxicity against human L02 cells to IC50 for antiproliferative activity against human A549 cells; assay type: toxicity, cell-based; settings: L02 cells and A549 cells, read-out: Ratio IC50
[4] = system: A2780S; test: Antiproliferative activity against human A2780S cells assessed as reduction in cell viability incubated for 24 hrs by MTT assay; assay type: functional, cell-based
[5] = system: SK-OV-3; test: Antiproliferative activity against human SK-OV-3 cells assessed as reduction in cell viability incubated for 24 hrs by MTT assay; assay type: functional, cell-based; settings: SK-OV-3, 24 h
[6] = Solubility in human plasma at pH 7.2 to 7.8 incubated for 4 hrs by HPLC analysis; assay type: ADME, cell-free
[7] = system: MDA-MB-231; test: Antiproliferative activity against human MDA-MB-231 cells assessed as reduction in cell viability incubated for 24 hrs by MTT assay; assay type: functional, cell-based; settings: MDA-MB-231, 24 h
[8] = system: MCF7; test: Antiproliferative activity against human MCF7 cells assessed as reduction in cell viability incubated for 24 hrs by MTT assay; assay type: functional, cell-based; settings: MCF7, 24 h
[9] = system: A549; test: Antiproliferative activity against human A549 cells assessed as cell growth inhibition incubated for 48 hrs by MTT assay; assay type: functional, cell-based; settings: A549, 48 h
[10] = system: HCT-116; test: Antiproliferative activity against human HCT-116 cells assessed as cell growth inhibition incubated for 48 hrs by MTT assay; assay type: functional, cell-based; settings: HCT-116, 48 h
[11] = system: MCF7; test: Antiproliferative activity against human MCF7 cells assessed as cell growth inhibition incubated for 48 hrs by MTT assay; assay type: functional, cell-based; settings: MCF7, 48 h
[12] = system: SK-MEL-28; test: Antiproliferative activity against human SK-MEL-28 cells assessed as cell growth inhibition incubated for 48 hrs by MTT assay; assay type: functional, cell-based; settings: SK-MEL-28, 48 h
[13] = Cytotoxicity against human HaCaT cells assessed as cell growth inhibition incubated for 48 hrs by MTT assay; assay type: toxicity, cell-based
[14] = system: A549; test: Antiproliferative activity against human A549 cells assessed as cell growth inhibition at 20 uM incubated for 48 hrs by MTT assay; assay type: functional
[15] = system: HCT-116; test: Antiproliferative activity against human HCT-116 cells assessed as cell growth inhibition at 20 uM incubated for 48 hrs by MTT assay; assay type: functional
[16] = system: MCF7; test: Antiproliferative activity against human MCF7 cells assessed as cell growth inhibition at 20 uM incubated for 48 hrs by MTT assay; assay type: functional
[17] = system: SK-MEL-28; test: Antiproliferative activity against human SK-MEL-28 cells assessed as cell growth inhibition at 20 uM incubated for 48 hrs by MTT assay; assay type: functional
[18] = biological target: T1, Epidermal growth factor receptor (Homo sapiens, UniProt P00533); test: Inhibition of EGFR (unknown origin) using poly E4Y1 and ATP as substrate incubated for 60 mins by ADP-Glo kinase assay
T1 sequence (P00533 whole entry): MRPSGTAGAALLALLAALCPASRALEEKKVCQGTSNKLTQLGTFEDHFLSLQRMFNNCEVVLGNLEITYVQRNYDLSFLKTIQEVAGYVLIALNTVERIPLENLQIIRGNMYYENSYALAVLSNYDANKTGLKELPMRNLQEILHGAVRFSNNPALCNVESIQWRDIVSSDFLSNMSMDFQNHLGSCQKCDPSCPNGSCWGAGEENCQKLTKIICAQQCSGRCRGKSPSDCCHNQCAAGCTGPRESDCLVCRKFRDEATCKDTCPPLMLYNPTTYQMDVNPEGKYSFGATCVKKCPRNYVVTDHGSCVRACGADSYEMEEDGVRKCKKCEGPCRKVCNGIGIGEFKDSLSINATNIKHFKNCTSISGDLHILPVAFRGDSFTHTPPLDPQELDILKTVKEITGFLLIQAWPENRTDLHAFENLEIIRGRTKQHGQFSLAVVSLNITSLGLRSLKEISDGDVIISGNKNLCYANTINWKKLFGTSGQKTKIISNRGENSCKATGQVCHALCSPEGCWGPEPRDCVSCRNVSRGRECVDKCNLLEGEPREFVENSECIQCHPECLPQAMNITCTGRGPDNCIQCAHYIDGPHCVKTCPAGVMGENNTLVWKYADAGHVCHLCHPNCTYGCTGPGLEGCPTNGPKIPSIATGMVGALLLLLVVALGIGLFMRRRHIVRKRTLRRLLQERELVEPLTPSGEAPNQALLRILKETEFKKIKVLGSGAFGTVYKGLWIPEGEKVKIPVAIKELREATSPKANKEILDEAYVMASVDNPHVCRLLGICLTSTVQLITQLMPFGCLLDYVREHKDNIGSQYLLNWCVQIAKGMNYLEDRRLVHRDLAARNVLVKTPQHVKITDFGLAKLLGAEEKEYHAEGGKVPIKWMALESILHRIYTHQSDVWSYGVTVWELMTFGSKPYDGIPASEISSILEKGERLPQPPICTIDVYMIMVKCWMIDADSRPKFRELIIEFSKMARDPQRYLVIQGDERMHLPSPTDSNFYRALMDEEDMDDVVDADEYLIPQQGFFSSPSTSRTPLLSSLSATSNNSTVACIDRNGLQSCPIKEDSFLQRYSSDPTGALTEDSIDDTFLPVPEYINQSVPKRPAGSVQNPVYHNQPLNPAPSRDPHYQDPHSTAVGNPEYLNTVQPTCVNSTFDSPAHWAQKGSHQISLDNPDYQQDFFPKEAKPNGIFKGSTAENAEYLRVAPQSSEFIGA

[19] = biological target: T1, Epidermal growth factor receptor; test: Inhibition of EGFR (unknown origin)
[20] = biological target: Epidermal growth factor receptor (Homo sapiens, UniProt P00533, L858R/T790M); test: Inhibition of EGFR T790M/L858R mutant (unknown origin)
Sequence of Epidermal growth factor receptor (Homo sapiens, UniProt P00533, L858R/T790M) (P00533 25-1210 T790M/L858R limits assumed): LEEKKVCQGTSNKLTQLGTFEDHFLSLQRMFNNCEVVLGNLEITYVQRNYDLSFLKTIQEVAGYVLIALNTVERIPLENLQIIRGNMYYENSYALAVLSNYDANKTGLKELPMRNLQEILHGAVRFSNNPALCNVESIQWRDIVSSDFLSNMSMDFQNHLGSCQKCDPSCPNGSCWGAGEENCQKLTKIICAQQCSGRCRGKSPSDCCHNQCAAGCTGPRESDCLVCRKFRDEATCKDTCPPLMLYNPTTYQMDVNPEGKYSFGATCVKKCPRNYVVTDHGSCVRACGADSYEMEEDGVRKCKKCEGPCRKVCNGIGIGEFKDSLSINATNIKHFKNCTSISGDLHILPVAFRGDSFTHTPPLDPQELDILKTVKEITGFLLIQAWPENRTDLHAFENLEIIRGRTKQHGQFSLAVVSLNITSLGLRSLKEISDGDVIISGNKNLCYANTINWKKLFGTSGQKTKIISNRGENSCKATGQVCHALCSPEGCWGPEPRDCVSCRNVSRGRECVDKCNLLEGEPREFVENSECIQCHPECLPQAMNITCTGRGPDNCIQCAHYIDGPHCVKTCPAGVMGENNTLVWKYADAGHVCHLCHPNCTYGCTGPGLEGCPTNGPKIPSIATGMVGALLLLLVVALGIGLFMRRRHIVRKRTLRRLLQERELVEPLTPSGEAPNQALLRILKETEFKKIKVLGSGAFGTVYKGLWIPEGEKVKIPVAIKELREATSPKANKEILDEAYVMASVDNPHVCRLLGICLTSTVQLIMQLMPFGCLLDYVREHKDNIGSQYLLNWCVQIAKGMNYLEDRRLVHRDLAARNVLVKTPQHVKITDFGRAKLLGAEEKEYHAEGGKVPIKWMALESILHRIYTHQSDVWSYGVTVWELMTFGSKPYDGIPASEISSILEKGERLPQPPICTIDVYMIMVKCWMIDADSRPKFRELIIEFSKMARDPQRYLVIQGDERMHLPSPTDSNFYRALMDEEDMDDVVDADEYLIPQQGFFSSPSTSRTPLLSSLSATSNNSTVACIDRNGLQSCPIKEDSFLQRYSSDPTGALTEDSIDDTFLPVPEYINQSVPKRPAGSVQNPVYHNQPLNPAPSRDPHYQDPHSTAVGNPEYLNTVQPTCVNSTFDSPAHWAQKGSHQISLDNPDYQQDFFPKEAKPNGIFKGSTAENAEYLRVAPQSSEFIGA

Compound: COc1cc(C2c3cc4c(cc3C(OC3OC5COC(C)OC5C(O)C3O)C3COC(=O)C23)OCO4)cc(OC)c1O (stereo not drawn)
- IC50 [1]: 9.4 µM
- IC50 [2]: 3.5 µM
- selectivity ratio [3]: 0.5

Compound: COc1ccc(/C=C/C(=O)c2ccc(OC)c3c2OC(C)(C)C=C3)cc1O
- IC50 [4]: 0.42 µM
- IC50 [5]: 0.42 µM
- solubility at 4 h [6]: 146 µg/mL (≈ 0.398 mM)
- IC50 [7]: 0.42 µM
- IC50 [8]: 0.42 µM

Compound: Cc1sc([Se]c2sc(C)c(-c3cccc(F)c3)c2C(=O)NC(C)C(=O)N2CCCC2)c(C(=O)NC(C)C(=O)N2CCCC2)c1-c1cccc(F)c1 (stereo not drawn)
- IC50 [9]: 13.2 µM
- IC50 [10]: 8.11 µM
- IC50 [11]: 14.4 µM
- IC50 [12]: 14.3 µM
- IC50 at 48 h [13]: 29.3 µM
- inhibition at 20 µM [14]: 77%
- inhibition at 20 µM [15]: 72%
- inhibition at 20 µM [16]: 86%
- inhibition at 20 µM [17]: 62%
- IC50 [18]: 0.835 µM

Compound: Cc1sc([Se]c2sc(C)c(-c3cccc(F)c3)c2C(=O)NC(CO)C(=O)N2CCCC2)c(C(=O)NC(CO)C(=O)N2CCCC2)c1-c1cccc(F)c1 (stereo not drawn)
- inhibition at 20 µM [14]: 27%
- inhibition at 20 µM [15]: 61%
- inhibition at 20 µM [16]: 85%
- inhibition at 20 µM [17]: 25%

Compound: COc1ccc(/C=C/C(=O)c2ccc(OC)c3c2OC(C)(C)C=C3)cc1OC(=O)CNC(=O)OC(C)(C)C
- IC50 [4]: 0.12 µM
- IC50 [5]: 0.12 µM
- solubility at 4 h [6]: 2980 µg/mL (≈ 5.69 mM)
- IC50 [7]: 0.12 µM
- IC50 [8]: 0.12 µM

Compound: c1ccc2c(c1)CCN2c1ncnc2cc3c(cc12)NCN3CCN1CCCC1
- IC50 [19]: 0.032 µM

Compound: Cc1sc([Se]c2sc(C)c(-c3cccc(Cl)c3)c2C(=O)NC(CO)C(=O)N2CCCC2)c(C(=O)NC(CO)C(=O)N2CCCC2)c1-c1cccc(Cl)c1 (stereo not drawn)
- IC50 [9]: 15.7 µM
- IC50 [10]: 6.83 µM
- IC50 [11]: 11.2 µM
- IC50 [12]: 13.8 µM
- IC50 at 48 h [13]: 31.8 µM
- inhibition at 20 µM [14]: 86%
- inhibition at 20 µM [15]: 75%
- inhibition at 20 µM [16]: 64%
- inhibition at 20 µM [17]: 66%
- IC50 [18]: 0.727 µM

Compound: O=c1[nH]cc(F)c(=O)[nH]1 [FLUOROURACIL]
- IC50 [9]: 18.6 µM
- IC50 [10]: 16.7 µM
- IC50 [11]: 15.2 µM
- IC50 [12]: 10.2 µM

Compound: Cc1sc([Se]c2sc(C)c(-c3cccc(F)c3)c2C(=O)NCC(=O)N2CCCC2)c(C(=O)NCC(=O)N2CCCC2)c1-c1cccc(F)c1
- IC50 [9]: 17.4 µM
- IC50 [10]: 9.22 µM
- IC50 [11]: 13.4 µM
- IC50 [12]: 11.5 µM
- IC50 at 48 h [13]: 24.7 µM
- inhibition at 20 µM [14]: 79%
- inhibition at 20 µM [15]: 73%
- inhibition at 20 µM [16]: 88%
- inhibition at 20 µM [17]: 70%

Compound: Cc1sc(Br)c(C(=O)NC(CO)C(=O)N2CCCC2)c1-c1cccc(Br)c1 (stereo not drawn)
- IC50 [9]: 28.8 µM
- IC50 [10]: 24.7 µM
- IC50 [11]: 32.7 µM
- IC50 [12]: 54.6 µM

Compound: Cc1sc([Se]c2sc(C)c(-c3cccc(Cl)c3)c2C(=O)NC(C)C(=O)N2CCCC2)c(C(=O)NC(C)C(=O)N2CCCC2)c1-c1cccc(Cl)c1 (stereo not drawn)
- inhibition at 20 µM [14]: 38%
- inhibition at 20 µM [15]: 70%
- inhibition at 20 µM [16]: 90%
- inhibition at 20 µM [17]: 13%

Compound: Cc1sc([Se]c2sc(C)c(-c3cccc(Br)c3)c2C(=O)NC(Cc2ccccc2)C(=O)N2CCCC2)c(C(=O)NC(Cc2ccccc2)C(=O)N2CCCC2)c1-c1cccc(Br)c1 (stereo not drawn)
- inhibition at 20 µM [14]: 14%
- inhibition at 20 µM [15]: 9%
- inhibition at 20 µM [16]: 26%
- inhibition at 20 µM [17]: 18%

Compound: Cc1sc([Se]c2sc(C)c(-c3cccc(F)c3)c2C(=O)NC(C(=O)N2CCCC2)C(C)C)c(C(=O)NC(C(=O)N2CCCC2)C(C)C)c1-c1cccc(F)c1 (stereo not drawn)
- inhibition at 20 µM [14]: 35%
- inhibition at 20 µM [15]: 63%
- inhibition at 20 µM [16]: 58%
- inhibition at 20 µM [17]: 36%

Compound: Cc1sc(Br)c(C(=O)NC(C)C(=O)N2CCCC2)c1-c1ccccc1 (stereo not drawn)
- IC50 [9]: 40.1 µM
- IC50 [10]: 37 µM
- IC50 [11]: 39.2 µM
- IC50 [12]: 55 µM

Compound: Cc1sc([Se]c2sc(C)c(-c3ccccc3)c2C(=O)NC(C)C(=O)N2CCCC2)c(C(=O)NC(C)C(=O)N2CCCC2)c1-c1ccccc1 (stereo not drawn)
- IC50 [9]: 15 µM
- IC50 [10]: 8.19 µM
- IC50 [11]: 15.1 µM
- IC50 [12]: 10.5 µM
- IC50 at 48 h [13]: 26.4 µM
- inhibition at 20 µM [14]: 82%
- inhibition at 20 µM [15]: 69%
- inhibition at 20 µM [16]: 90%
- inhibition at 20 µM [17]: 72%

Compound: Cc1sc(Br)c(C(=O)NC(C)C(=O)N2CCCC2)c1-c1cccc(F)c1 (stereo not drawn)
- IC50 [9]: 44.6 µM
- IC50 [10]: 31 µM
- IC50 [11]: 47.7 µM
- IC50 [12]: 49.4 µM

Compound: Cc1sc([Se]c2sc(C)c(-c3cccc(F)c3)c2C(=O)NC(CC(C)C)C(=O)N2CCCC2)c(C(=O)NC(CC(C)C)C(=O)N2CCCC2)c1-c1cccc(F)c1 (stereo not drawn)
- inhibition at 20 µM [14]: 52%
- inhibition at 20 µM [15]: 57%
- inhibition at 20 µM [16]: 70%
- inhibition at 20 µM [17]: 18%

Compound: Cc1sc([Se]c2sc(C)c(-c3cccc(Br)c3)c2C(=O)NC(C(=O)N2CCCC2)C(C)C)c(C(=O)NC(C(=O)N2CCCC2)C(C)C)c1-c1cccc(Br)c1 (stereo not drawn)
- inhibition at 20 µM [14]: 44%
- inhibition at 20 µM [15]: 51%
- inhibition at 20 µM [16]: 72%
- inhibition at 20 µM [17]: 34%

Compound: Cc1sc([Se]c2sc(C)c(-c3ccccc3)c2C(=O)NCC(=O)N2CCCC2)c(C(=O)NCC(=O)N2CCCC2)c1-c1ccccc1
- inhibition at 20 µM [14]: 45%
- inhibition at 20 µM [15]: 25%
- inhibition at 20 µM [16]: 89%
- inhibition at 20 µM [17]: < 10%

Compound: Cc1sc([Se]c2sc(C)c(-c3cccc(F)c3)c2C(=O)NC(Cc2ccccc2)C(=O)N2CCCC2)c(C(=O)NC(Cc2ccccc2)C(=O)N2CCCC2)c1-c1cccc(F)c1 (stereo not drawn)
- inhibition at 20 µM [14]: 14%
- inhibition at 20 µM [15]: 10%
- inhibition at 20 µM [16]: 3%
- inhibition at 20 µM [17]: < 10%

Compound: Cc1sc(Br)c(C(=O)NC(CO)C(=O)N2CCCC2)c1-c1cccc(Cl)c1 (stereo not drawn)
- IC50 [9]: 33.9 µM
- IC50 [10]: 34.5 µM
- IC50 [11]: 36.9 µM
- IC50 [12]: 57.1 µM

Compound: O=C(N/N=C/c1cnc(N2CCCC2)nc1)Nc1cc2c(Nc3ccc(F)c(Cl)c3)ncnc2cc1O[C@@H]1CCOC1
- IC50 [19]: 0.0063 µM
- IC50 [20]: 0.0084 µM

Compound: Cc1sc([Se]c2sc(C)c(-c3cccc(Cl)c3)c2C(=O)NC(C(=O)N2CCCC2)C(C)C)c(C(=O)NC(C(=O)N2CCCC2)C(C)C)c1-c1cccc(Cl)c1 (stereo not drawn)
- inhibition at 20 µM [14]: 36%
- inhibition at 20 µM [15]: 47%
- inhibition at 20 µM [16]: 64%
- inhibition at 20 µM [17]: < 10%

Compound: Cc1sc(Br)c(C(=O)NCC(=O)N2CCCC2)c1-c1cccc(F)c1
- IC50 [9]: 42.6 µM
- IC50 [10]: 39 µM
- IC50 [11]: 43.7 µM
- IC50 [12]: 40.1 µM

Compound: Cc1sc([Se]c2sc(C)c(-c3cccc(Cl)c3)c2C(=O)NC(Cc2ccccc2)C(=O)N2CCCC2)c(C(=O)NC(Cc2ccccc2)C(=O)N2CCCC2)c1-c1cccc(Cl)c1 (stereo not drawn)
- inhibition at 20 µM [14]: 23%
- inhibition at 20 µM [15]: 15%
- inhibition at 20 µM [16]: 13%
- inhibition at 20 µM [17]: 22%

Source: ChEMBL document CHEMBL5356985, “Development of trisubstituted thiophene-3-arboxamide selenide derivatives as novel EGFR kinase inhibitors with cytotoxic activity” (RSC Med Chem, 2023)
